According to US7709475B2, “Selective inhibitors against Cdk4 and Cdk6 having aminothiazole skeleton” (Banyu Pharmaceutical Co., Ltd., priority 2004, dated 2010):

Key:
Format in all cases: biochemical
cyclin T1-Cdk9 = molecular target: T1, cyclin T1-Cdk9 (Homo sapiens, UniProt P50750); test: Cdk9 inhibitory action: cyclin T1-Cdk9 kinase activity; details: cyclin T1-Cdk9, 50 μM ATP
T1 construct: made in house; host or cells: insect cell Sf9 (baculovirus)
From the text: The cDNA of Cdk9, and the cDNA of a fusion protein of cyclin T1, an activating factor of Cdk9, and glutathione S-transferase, were integrated into a baculovirus expression vector to prepare a recombinant baculovirus. This was co-transfected into insect cell Sf9 to express an active complex of the cyclin T1/glutathione S-transferase fusion protein-Cdk9 at a high level. The cells were recovered and solubilized, and the active complex was adsorbed onto Glutathione Sepharose, and then was purified by elution with 10 mM reductive glutathione. The solution containing the eluted active complex was dialyzed against B buffer (composition: 20 mM Tris-hydrochloric acid buffer (pH 7.4)/200 mM sodium chloride/0.1% Tween-20/10 mM 2-mercaptoethanol/1 mM dithiothreitol/10% glycerol) to remove the reductive glutathione.
For the measurement of the activity of cyclin T1-Cdk9, a synthetic peptide ([…] was used as the substrate.
(§1) The reaction was performed by partially modifying the method of Kitagawa et al. [Oncogene, Vol. 7, 1067-1074 (1992)]. The volume of the reaction solution was 21.1 μL, and to the R buffer, purified cyclin T1-Cdk9, 25 μM of the substrate peptide, 50 μM of non-labeled adenosine triphosphate (ATP), and 0.5 μCi of [γ-33P]-labeled ATP (2000 to 4000 Ci/mmole) were added to react at 30° C. for 20 minutes. Then, 10 μL of 350 mM phosphate buffer was added to the reaction system to terminate the reaction. The substrate peptide was adsorbed onto P81 paper filter on a 96-well plate, and then washed several times with 75 mM phosphate buffer. The radioactivity of the substrate peptide was measured with a liquid scintillation counter.
Addition of the compound according to the invention to the reaction system was carried out by first preparing a dilution series of solutions of the compound in dimethylsulfoxide (DMSO), and adding […] of the dilutions. A control was provided by adding 1.1 μL of DMSO to the reaction system.
A representative compound of the compounds according to the invention was selected, and the IC50 value (nM) of this compound for the cyclin T1-Cdk9 activity was determined.

cyclin B-Cdk1 = molecular target: T2, cyclin B-Cdk1 (Homo sapiens, UniProt P06493); test: Cdk1 (Cdc2) inhibitory action: cyclin B-Cdk1 kinase activity; details: cyclin B-Cdk1, 50 μM ATP
T2 construct: made in house; host or cells: insect cell Sf9 (baculovirus)
T2 sequence (P06493 whole entry): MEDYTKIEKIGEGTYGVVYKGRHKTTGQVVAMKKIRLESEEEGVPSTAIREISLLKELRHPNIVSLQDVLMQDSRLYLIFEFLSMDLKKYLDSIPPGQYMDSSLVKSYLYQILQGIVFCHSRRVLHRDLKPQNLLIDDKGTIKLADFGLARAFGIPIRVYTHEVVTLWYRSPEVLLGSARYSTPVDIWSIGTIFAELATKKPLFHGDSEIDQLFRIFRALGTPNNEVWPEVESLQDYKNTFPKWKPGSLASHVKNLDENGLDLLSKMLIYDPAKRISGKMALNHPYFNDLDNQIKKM
T2 sequence (P14635 whole entry partner): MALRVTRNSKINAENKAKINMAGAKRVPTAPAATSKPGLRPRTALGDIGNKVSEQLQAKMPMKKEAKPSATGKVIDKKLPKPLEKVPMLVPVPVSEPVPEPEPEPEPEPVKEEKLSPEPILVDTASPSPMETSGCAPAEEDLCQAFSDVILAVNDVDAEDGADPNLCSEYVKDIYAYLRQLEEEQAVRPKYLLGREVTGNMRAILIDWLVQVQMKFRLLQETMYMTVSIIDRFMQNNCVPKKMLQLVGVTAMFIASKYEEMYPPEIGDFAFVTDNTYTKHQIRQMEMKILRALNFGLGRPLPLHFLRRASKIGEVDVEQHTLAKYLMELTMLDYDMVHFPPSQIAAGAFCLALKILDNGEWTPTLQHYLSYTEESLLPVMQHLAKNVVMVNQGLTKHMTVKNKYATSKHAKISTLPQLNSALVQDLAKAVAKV
From the text: (§2) The cDNA of Cdk1, and the cDNA of a fusion protein of cyclin B, an activating factor of Cdk1, and glutathione S-transferase, were integrated into a baculovirus expression vector to prepare a recombinant baculovirus. This was co-transfected into insect cell Sf9 to express an active complex of the cyclin B/glutathione S-transferase fusion protein-Cdk1 at a high level. The cells were recovered and solubilized, then the active complex was adsorbed onto Glutathione Sepharose, and a cyclin B-Cdk1 active complex was recovered using Precision Protease and was purified by HPLC column chromatography.
For the measurement of the activity of cyclin B-Cdk1, a synthetic peptide (Ala-Lys-Ala-Lys-Lys-Thr-Pro-Lys-Lys-Ala-Lys-Lys) was used as the substrate.
as §1, with “cyclin B-Cdk1, 100” for “cyclin T1-Cdk9, 25”, “and 1” for “and 0.5”, “for 30” for “for 20”
(§3) Addition of the compound according to the invention to the reaction system was carried out by first preparing a dilution series of solutions of the compound in dimethylsulfoxide (DMSO), and adding 1.1 μL of the dilutions. A control was provided by adding 1.1 μL of DMSO to the reaction system.
A representative compound of the compounds according to the invention was selected, and the IC50 value of this compound for the cyclin B-Cdk1 activity was determined.

cyclin A-Cdk2 = molecular target: T3, cyclin A-Cdk2 (Homo sapiens, UniProt P24941); test: Cdk2 inhibitory action: cyclin A-Cdk2 kinase activity; details: cyclin A-Cdk2, 50 μM ATP
T3 construct: made in house; host or cells: insect cell Sf9 (baculovirus)
From the text: as §2, with “In the same manner as in the case of cyclin D2-Cdk4, the cDNA” for “The cDNA”, “of Cdk2,” for “of Cdk1,”, “cyclin A,” for “cyclin B,”, “cyclin A/glutathione” for “cyclin B/glutathione”, “fusion protein-Cdk2” for “fusion protein-Cdk1”, “cyclin A-Cdk2” for “cyclin B-Cdk1 active”
For the measurement of the activity of cyclin A-Cdk2, a synthetic peptide (Ala-Lys-Ala-Lys-Lys-Thr-Pro-Lys-Lys-Ala-Lys-Lys) was used as the substrate.
as §1, with “cyclin A-Cdk2, 0.01 mg/mL” for “cyclin T1-Cdk9, 25 μM”, “and 1” for “and 0.5”, “for 30” for “for 20”
as §3
A representative compound of the compounds according to the invention was selected, and the IC50 value of this compound for the cyclin A-Cdk2 activity was determined.

T1 sequence (P50750 whole entry): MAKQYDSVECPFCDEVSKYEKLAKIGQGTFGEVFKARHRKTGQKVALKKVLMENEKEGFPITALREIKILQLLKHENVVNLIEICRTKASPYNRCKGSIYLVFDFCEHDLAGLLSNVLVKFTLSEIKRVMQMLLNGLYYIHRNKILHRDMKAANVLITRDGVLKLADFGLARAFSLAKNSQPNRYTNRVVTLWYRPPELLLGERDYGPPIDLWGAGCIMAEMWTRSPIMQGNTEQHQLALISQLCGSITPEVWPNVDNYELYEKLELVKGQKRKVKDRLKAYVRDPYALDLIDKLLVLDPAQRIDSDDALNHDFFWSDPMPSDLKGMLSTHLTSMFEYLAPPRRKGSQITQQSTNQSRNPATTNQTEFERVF
T1 sequence (O60563 whole entry partner): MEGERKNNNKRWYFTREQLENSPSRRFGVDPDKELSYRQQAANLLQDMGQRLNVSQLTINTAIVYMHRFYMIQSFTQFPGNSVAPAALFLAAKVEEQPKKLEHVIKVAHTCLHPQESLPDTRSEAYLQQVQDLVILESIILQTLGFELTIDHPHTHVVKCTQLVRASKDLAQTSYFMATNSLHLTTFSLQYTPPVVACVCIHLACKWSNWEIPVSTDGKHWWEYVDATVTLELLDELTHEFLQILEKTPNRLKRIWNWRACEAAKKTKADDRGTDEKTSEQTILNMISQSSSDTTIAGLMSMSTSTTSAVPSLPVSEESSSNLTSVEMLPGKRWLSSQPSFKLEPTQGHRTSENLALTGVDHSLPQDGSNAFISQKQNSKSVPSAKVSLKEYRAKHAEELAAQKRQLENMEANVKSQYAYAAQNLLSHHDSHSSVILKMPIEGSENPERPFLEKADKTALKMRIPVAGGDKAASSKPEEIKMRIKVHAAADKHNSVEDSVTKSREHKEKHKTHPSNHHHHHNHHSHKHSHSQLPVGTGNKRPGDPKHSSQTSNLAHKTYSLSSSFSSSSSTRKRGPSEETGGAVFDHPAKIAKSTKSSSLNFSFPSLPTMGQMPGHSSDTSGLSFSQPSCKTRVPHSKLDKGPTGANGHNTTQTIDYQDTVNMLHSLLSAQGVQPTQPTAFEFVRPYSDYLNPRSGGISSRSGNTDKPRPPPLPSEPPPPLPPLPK

SMILES	IC50 (cyclin T1-Cdk9)	IC50 (cyclin B-Cdk1)	IC50 (cyclin A-Cdk2)
Cc1cc(-c2cnc(Nc3cnc(CN4CCN(C)CC4)cn3)s2)nc(OC2CCCCC2)n1 [Example 1, 5-[2-(cyclohexyloxy)-6-methyl-4-pyrimidinyl]-2-[5-(4-methyl-1-piperazinyl)methyl-2-pyrazinyl]amino-1,3-thiazole]	2500 nM	600 nM	1700 nM
Cc1cc(-c2cnc(Nc3cnc(CN4CCC(N(C)C)C4)cn3)s2)nc(OC2CCCCC2)n1 (stereo not shown) [Example 13, 5-[2-(cyclohexyloxy)-6-methyl-4-pyrimidinyl]-2-[5-(3-dimethylamino-1-pyrrolidinyl)methyl-2-pyrazinyl]amino-1,3-thiazole]	430 nM	620 nM	850 nM
Cc1cc(-c2cnc(Nc3cnc(CN4CCN(C)CC4)cn3)s2)nc(NC2CCCCC2)n1 [Example 55, 5-[2-(cyclohexylamino)-6-methyl-4-pyrimidinyl]-2-[5-(4-methyl-1-piperazinyl)methyl-2-pyrazinyl]amino-1,3-thiazole]	1400 nM	750 nM	1900 nM
Cc1cc(-c2cnc(Nc3cnc(CN4CCCC4)cn3)s2)nc(SC2CCCCC2)n1 [Example 93, 5-[2-(cyclohexylthio)-6-methyl-4-pyrimidinyl]-2-[5-(1-pyrrolidinyl)methyl-2-pyrazinyl]amino-1,3-thiazole]	230 nM	870 nM	480 nM
Cc1cc(-c2cnc(Nc3cnc(CN4CCC(N(C)C)C4)cn3)s2)nc(SC2CCCCC2)n1 (stereo not shown) [Example 94, 5-[2-(cyclohexylthio)-6-methyl-4-pyrimidinyl]-2-[5-(3-dimethylamino-1-pyrrolidinyl)methyl-2-pyrazinyl]amino-1,3-thiazole]	270 nM	920 nM	1700 nM

Now from value to molecule:

IC50 (cyclin T1-Cdk9)	IC50 (cyclin B-Cdk1)	IC50 (cyclin A-Cdk2)	SMILES
140 nM	560 nM	600 nM	Cc1cc(-c2cnc(Nc3cnc(CNC(C)C)cn3)s2)nc(SC2CCCCC2)n1 [Example 96, 5-[2-(cyclohexylthio)-6-methyl-4-pyrimidinyl]-2-[5-(isopropylamino)methyl-2-pyrazinyl]amino-1,3-thiazole]
98 nM	–	–	Cc1cc(-c2cnc(Nc3cnc(CNCCO)cn3)s2)nc(SC2CCCCC2)n1 [Example 99, 5-[2-(cyclohexylthio)-6-methyl-4-pyrimidinyl]-2-[5-(2-hydroxyethylamino)methyl-2-pyrazinyl]amino-1,3-thiazole]
640 nM	430 nM	1000 nM	Cc1cc(-c2cnc(Nc3cnc(CN4CCN(C)CC4)cn3)s2)nc(Sc2ccccc2Cl)n1 [Example 109, 5-[2-(2-chlorophenylthio)-6-methyl-4-pyrimidinyl]-2-[5-(4-methyl-1-piperazinyl)methyl-2-pyrazinyl]amino-1,3-thiazole]
650 nM	1200 nM	1600 nM	CC(=O)N1CCN(Cc2ccc(Nc3ncc(-c4cc(C)nc(OC5CCCCC5)n4)s3)nc2)CC1 [Example 125, 5-[2-(cyclohexyloxy)-6-methyl-4-pyrimidinyl]-2-[5-(4-acetyl-1-piperazinyl)methyl-2-pyridyl]amino-1,3-thiazole]
1100 nM	1200 nM	4500 nM	Cc1cc(-c2cnc(Nc3ccc(CN4CCC[C@H]4CO)cn3)s2)nc(NC2CCCCC2)n1 [Example 137, (2S)-5-[2-(cyclohexylamino)-6-methyl-4-pyrimidinyl]-2-[5-(2-hydroxymethyl-1-pyrrolidinyl)methyl-2-pyridyl]amino-1,3-thiazole]
